Molecules are shown by their SMILES.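 Values below derive from 48-hour exposures of cells grown in 96-well plates, with endpoints linearly interpolated between the two concentrations bracketing the appropriate inhibition level. The concentration for 50% growth inhibition is given as GI50. The concentration for full growth arrest is given as TGI.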

From PubChem BioAssay (NCI) come the findings set out here.

Experiment in all cases: NCI-60 cell line screen, 48 h
In assay [1] the test system is ACHN renal.
Assay [2] has as its system HCT-15 colon.
The test system of assay [3] is HOP-92 NSCLC.
Assay [4] deals with HT29 colon.
The subject of assay [5] is SF-268 CNS.
For assay [6], the system named is SK-MEL-2 melanoma.
Assay [7] has as its system SK-MEL-5 melanoma.
For assay [8], the system named is SNB-75 CNS.
Assay [9] deals with UACC-257 melanoma.
Assay [10] relates to M14 melanoma.

Take `COc1ccc2c(c1)C(=O)c1c-2n(CCCN)c(=O)c2cc(OC)c(OC)cc12`: the GI50 was 0.0397 µM in assay [1]; 0.229 µM in [2]; 0.424 µM in [3]; 0.0684 µM in assay [4]; 0.515 µM in [5]; 2.55 µM in assay [6]. Also, the GI50 is 0.283 µM in [7], 1.16 µM in assay [8] and 3.58 µM in assay [9]. For the same compound, the TGI in assay [1] came to 1.14 µM; in assay [2], 1.18 µM; in assay [3], 2.34 µM; in assay [4] it was 0.214 µM; in assay [7], 1.93 µM; in [8], 2.55 µM. This compound returned a TGI in assay [9] of 19.3 µM.
Consider `CC1CCc2c(c(CC3CC(=O)NC(=O)C3)nn2-c2ccccc2)C1` (centres undefined), for which the TGI in assay [1], in assay [2], in [3], in assay [4], in [10] and in assay [5] was more than 100 µM in each case. Further, the TGI in assay [6], in assay [7], in assay [8] and in [9] was more than 100 µM in each case.
`COc1cc2c(cc1OC)c1c(OC)c(OC)cc3c1c1c2sc(=S)n1CC3`: the TGI in [1] is more than 100 µM; in [2], more than 100 µM; in [3], more than 100 µM; in assay [4] it was more than 100 µM; in [10], 35.1 µM; in assay [5], more than 100 µM. Further, the TGI in assay [6], in assay [7], in [8] and in assay [9] was more than 100 µM throughout.
For `Cc1cc(C)nc(NS(=O)(=O)c2ccc(NC(=O)c3ccc(Cl)c4c(Nc5ccc(S(=O)(=O)N=C(N)N)cc5)c5ccccc5nc34)cc2)n1`, the TGI in [1] was more than 100 µM; in assay [3], 67.7 µM; in [4], 30.2 µM; in assay [10] it was more than 100 µM; in assay [5], more than 100 µM; in assay [7], more than 100 µM. Moreover, the TGI in assay [8] and in assay [9] was more than 100 µM in each case.
Regarding `COc1cc(/C=C\c2ccc(OC(C)=O)cc2)cc(OC)c1OC`, the TGI in assay [1], in assay [3], in assay [4], in [10], in assay [5] and in assay [6] was more than 100 µM in each case. Further, the TGI in [8] was 6.93 µM; in assay [9] it was more than 100 µM.
`C#CCN(N=O)C(=O)NCCCC(NC(C)=O)C(=O)NCc1ccccc1` (centres undefined): the TGI in assay [1], in [2], in assay [3], in assay [4], in [10] and in [5] was more than 100 µM in each case. Besides, the TGI in assay [7], in [8] and in [9] was more than 100 µM throughout.
Regarding `COC(=O)C(=O)C(C(=O)C(=O)Nc1ccc(C)cc1)c1nc2ccc(C(=O)c3ccccc3)cc2[nH]c1=O` (centres undefined), the TGI in [1], in assay [2], in assay [3], in [4], in assay [5] and in assay [6] was more than 100 µM in each case. Moreover, the TGI in assay [7], in [8] and in assay [9] was more than 100 µM each time.
Regarding `C/C=C(/C)C(=O)OC1C=C(CO)C(=O)C(OC(=O)C(C)(O)C(C)Cl)C1C(C)C` (centres undefined), the GI50 was 0.829 µM in [1]; 0.772 µM in assay [2]; 1.77 µM in [3]; 1.47 µM in assay [4]; 1.6 µM in assay [10]; 2.19 µM in [5]. Besides, the GI50 is 2.06 µM in [6], 1.38 µM in assay [7] and 1.42 µM in assay [9]. Besides, the TGI in assay [1] is 2.06 µM; in assay [2], 2.36 µM; in assay [3] it was 3.57 µM; in assay [4], 3.56 µM; in assay [10], 3.5 µM; in [5], 5.08 µM. For the same compound, the TGI was found to be 4.29 µM in assay [6], 2.75 µM in assay [7] and 3.32 µM in assay [9].
Take `CC(=O)O/N=C(Cl)/C(Cl)=N/OC(C)=O`: the TGI in assay [1], in assay [2], in assay [3], in assay [4], in [10] and in assay [5] was more than 100 µM throughout. For the same compound, the TGI in assay [6], in [8] and in [9] was more than 100 µM in each case.
In the case of `OC1CCC[C@@H]1Sc1ccccc1` (some centres undefined), the TGI in assay [1], in [2], in assay [3], in assay [10], in [5] and in assay [6] was more than 100 µM in each case. Moreover, the TGI in assay [7], in assay [8] and in [9] was more than 100 µM throughout.
Take `COC(=O)C(C(=O)C(=O)Nc1ccc(OC)cc1[N+](=O)[O-])c1nc2cc(C)c(C)cc2[nH]c1=O` (centres undefined): the TGI in [1], in [2], in assay [3], in assay [4], in [10] and in assay [5] was more than 100 µM throughout. Moreover, the TGI in assay [7], in [8] and in [9] was more than 100 µM throughout.
As to `COc1cc(CC(C(=O)O)C(=O)O)c(OC)cc1CC(C(=O)O)C(=O)O`, the TGI in assay [2], in assay [3], in assay [4], in assay [10], in assay [5] and in [7] was more than 100 µM each time. In addition, the TGI in [8] and in [9] was more than 100 µM in each case.
For the compound `COc1ccc(/C=c2/sc3n(c2=O)NC(c2ccc(Cl)cc2)NN=3)cc1` (centres undefined), the TGI in assay [3], in assay [4], in assay [10], in [5], in assay [6] and in assay [7] was more than 100 µM in each case. Besides, the TGI in assay [8] was 78.1 µM.
As for `O=C1NC(S(=O)(=O)O)=NNC12c1ccccc1-c1ccccc12`, the TGI in [1], in assay [2], in assay [3], in assay [4], in assay [10] and in [5] was more than 10 µM in each case. The TGI in assay [7], in assay [8] and in assay [9] was more than 10 µM in each case.
